The values below come from patent US12338238B2, “Inhibitors of SARM1” (Disarm Therapeutics, Inc., priority 2018, dated 2025).

Structures are written as SMILES.

The first test deals with SARM1 SAM-TIR (Homo sapiens (Human), UniProt Q6SZW1). Description: biochemical. In kind it is biochemical. Conditions: SAM-TIR lysate 5 μg/mL, 2 hr pre-incubation, 5 μM NAD+, RapidFire MS.
Sequence of SARM1 SAM-TIR (Q6SZW1 409-724): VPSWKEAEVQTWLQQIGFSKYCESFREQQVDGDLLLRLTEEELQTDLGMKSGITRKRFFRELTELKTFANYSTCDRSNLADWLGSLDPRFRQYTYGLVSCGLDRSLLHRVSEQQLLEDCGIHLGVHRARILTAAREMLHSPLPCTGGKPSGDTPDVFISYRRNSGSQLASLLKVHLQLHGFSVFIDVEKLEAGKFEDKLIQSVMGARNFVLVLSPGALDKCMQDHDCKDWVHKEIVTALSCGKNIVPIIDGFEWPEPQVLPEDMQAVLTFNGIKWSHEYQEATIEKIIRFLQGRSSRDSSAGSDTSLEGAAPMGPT
On to `O=c1[nH]cc(Br)c2cc[n+]([O-])cc12` [Example 83], for which the IC50 (commonly the concentration that gives 50% inhibition) is over 30 µM.
On the same count and under the same terms, next, `COc1ccc(Br)c2ccncc12` [Example 15]: under 5 µM; `Nc1ccnc2cnccc12` [Example 71]: 5 to 15 µM.
The molecule `Nc1ccc(Cl)c2ccncc12` [Example 32] showed an IC50 of under 5 µM.
Still for that read-out and setting: next, `CC(C)c1c[nH]c(=O)c2cnccc12` [Example 22]: 5 to 15 µM; `Nc1cccc2cncc(Br)c12` [Example 35]: 15 to 30 µM; `O=c1[nH]cnc2ccncc12` [Example 78]: 15 to 30 µM.
As for `C#Cc1cccc2cnccc12` [Example 85], the 50% inhibitory concentration (IC50) was under 5 µM.
The same measure, in the same setting: next, `Oc1ccc(Br)c2ccncc12` [Example 65]: under 5 µM; `COc1cccc2cnncc12` [Example 73]: 5 to 15 µM.
On the same count and under the same terms, next, `NCc1cccc2cnccc12` [Example 50]: 15 to 30 µM; `Nc1ccc2cnccc2c1Cl` [Example 9]: 15 to 30 µM.
In turn, `Cn1cc(Br)c2ccncc2c1=O` [Example 66] showed an IC50 of under 5 µM.
Same read-out and setting: then `Nc1ccc(O)c2cnccc12` [Example 62], with under 5 µM; and `Ic1cccc2cnncc12` [Example 64], with under 5 µM; and `COC(=O)c1cccc2cnccc12` [Example 51], with over 30 µM.
Same read-out and setting: then `Clc1cccc2cnccc12` [Example 42], with under 5 µM; and `CCn1cc(Br)c2ccncc2c1=O` [Example 20], with 5 to 15 µM; and `O=c1[nH]ccc2ccc(O)cc12` [Example 39], with over 30 µM.
On the same count and under the same terms, then `Oc1cccc2ccncc12` [Example 11], with under 5 µM; and `FC(F)(F)c1cccc2cnccc12` [Example 61], with over 30 µM.
The molecule `Cc1cncc2ccccc12` [Example 17] displayed an IC50 of 5 to 15 µM.
The molecule `O=S(=O)(Nc1nccc2c(Br)cccc12)C1CC1` [Example 77] displayed an IC50 of 15 to 30 µM.
Still for that read-out and setting: then `CNc1nccc2c(Br)cccc12` [Example 27], with over 30 µM; and `Clc1ncc(Br)c2ccncc12` [Example 81], with over 30 µM; and `COc1ncc(C2CC2)c2ccncc12` [Example 24], with over 30 µM.
For `Cc1cc2c(N)cccc2cn1` [Example 58], the IC50 lay in the range of 5 to 15 µM.
The same measure, in the same setting: next, `Nc1ccc(Br)c2ccncc12` [Example 12]: under 5 µM.
Still for that read-out and setting: next, `CNc1ncc(Br)c2ccncc12` [Example 68]: under 5 µM; `O=c1[nH]cc(Br)c2ccncc12` [Example 4]: under 5 µM; `OCc1cccc2cnccc12` [Example 45]: under 5 µM.
In turn, `Brc1cccc2cncnc12` [Example 60] came in with an IC50 of over 30 µM.
The same measure, in the same setting: then `Cc1nccc2c(Br)cccc12` [Example 53], with over 30 µM; and `COc1cc(Br)c2ccncc2n1` [Example 69], with under 5 µM; and `O=c1[nH]ncc2ccc(F)cc12` [Example 7], with over 30 µM.
`Brc1cccc2cnncc12` [Example 10] gave an IC50 of under 5 µM.
Regarding `O=c1[nH]cc(I)c2ccncc12` [Example 3], the IC50 was under 5 µM.
The same measure, in the same setting: next, `Oc1cncc2ccccc12` [Example 59]: 15 to 30 µM; `CN(C)c1nccc2c(Br)cccc12` [Example 23]: over 30 µM; `Nc1c[nH]c(=O)c2cnccc12` [Example 75]: 15 to 30 µM.
Molecule `CNC(=O)Nc1ncc(Br)c2ccncc12` [Example 72] showed an IC50 of 5 to 15 µM.
In turn, `CC(C)(O)c1cccc2cnccc12` [Example 82] came in with an IC50 of over 30 µM.
The same measure, in the same setting: then `COc1c[nH]c(=O)c2cnccc12` [Example 28], with over 30 µM; and `COc1cccc2ccncc12` [Example 56], with under 5 µM; and `Brc1cncc2cnccc12` [Example 70], with under 5 µM.
On the same count and under the same terms, next, `CC(C)Oc1cccc2cnccc12` [Example 25]: over 30 µM; `O=c1[nH]cc([N+](=O)[O-])c2ccncc12` [Example 80]: over 30 µM.
The same measure, in the same setting: then `Cc1nccc2c(Br)c[nH]c(=O)c12` [Example 76], with 15 to 30 µM; and `Brc1ccnc2cnccc12` [Example 67], with under 5 µM.
In turn, `Clc1ccnc2cnccc12` [Example 41] showed an IC50 of under 5 µM.
In the case of `c1ccc2cnccc2c1` [Example 48], the IC50 was in the range of 5 to 15 µM.
For `O=c1[nH]ccc2c(Br)cccc12` [Example 33], the IC50 fell in the range of 5 to 15 µM.
Still for that read-out and setting: then `Nc1nccc2c(I)cccc12` [Example 18], with under 5 µM; and `c1ccc2nnccc2c1` [Example 43], with under 5 µM.
The same measure, in the same setting: next, `Clc1ccc(Br)c2cnccc12` [Example 34]: 15 to 30 µM; `O=C(O)c1ccnc2cnccc12` [Example 54]: 15 to 30 µM; `CC(=O)c1cccc2cnccc12` [Example 79]: 15 to 30 µM.
In turn, `Clc1ccc(Cl)c2cnccc12` [Example 57] registered a half-inhibitory concentration (IC50) of 5 to 15 µM.
`Nc1nccc2c(Br)cccc12` [Example 55]: the IC50 was under 5 µM.
Take `O=[N+]([O-])c1cccc2cnccc12` [Example 47]: the IC50 was in the range of 5 to 15 µM.
Take `CSc1cccc2cnccc12` [Example 74]: the IC50 was in the range of 5 to 15 µM.
In the case of `Nc1cccc2cnncc12` [Example 37], the IC50 lay in the range of 15 to 30 µM.
Molecule `Brc1cccc2cnccc12` [Example 8] showed a 50% inhibitory concentration (IC50) of under 5 µM.
Molecule `Cc1cncc2cccc(Br)c12` [Example 13] returned an IC50 of 5 to 15 µM.
Still for that read-out and setting: then `Nc1nccc2ccncc12` [Example 38], with over 30 µM.
On the same count and under the same terms, next, `O=c1cc(Br)c2ccncc2[nH]1` [Example 29]: under 5 µM; `COc1cccc2cnccc12` [Example 49]: 5 to 15 µM; `Nc1cccc2c(Br)cncc12` [Example 52]: over 30 µM.
In turn, `c1cc(C2CC2)c2ccncc2c1` [Example 19] came in with an IC50 of 5 to 15 µM.
`c1cc2ccncc2cn1` [Example 36] returned an IC50 of 15 to 30 µM.
`COc1cc2cc[nH]c(=O)c2cc1F` [Example 40] displayed an IC50 of over 30 µM.
Same read-out and setting: then `Nc1nccc2c(C3CC3)cccc12` [Example 84], with over 30 µM.
On the same count and under the same terms, next, `Brc1ccc2cnncc2c1` [Example 16]: over 30 µM; `Oc1cccc2cnccc12` [Example 44]: under 5 µM.
Turning to `Oc1cc2c(Br)cccc2cn1` [Example 14], the IC50 was over 30 µM.
Molecule `Nc1ncc(Br)c2ccncc12` [Example 46] had an IC50 of under 5 µM.
In turn, `O=c1[nH]ccc2ccncc12` [Example 5] had an IC50 of under 5 µM.
The molecule `COc1ncc(Br)c2ccncc12` [Example 21] came in with an IC50 of 5 to 15 µM.
In turn, `Fc1cc(Cl)c2ccncc2c1` [Example 30] came in with an IC50 of under 5 µM.
Consider `Nc1cncc2ccccc12` [Example 63], for which the IC50 was 5 to 15 µM.
Still for that read-out and setting: next, `Brc1cncc2ccccc12` [Example 2]: 15 to 30 µM.

The subject of another test is mouse dorsal root ganglion (DRG) axons. Briefly: Axon degeneration assay in mouse DRG drop culture. The test is classed as cell-based. The conditions noted are these: protection of axon fragmentation, axonal transection or chemotoxic stimuli. On the procedure:
This Example illustrates an in vitro axon degeneration assay used to characterize compounds of Formula I. This assay is used to test the efficacy of the compounds of Formula I to prevent axonal degeneration in a mouse dorsal root ganglion (DRG) drop culture.
Mouse dorsal root ganglion neurons (DRGs) were dissected out of E12.5 CD1 mice (50 ganglion per embryo) and incubated with 0.5% Trypsin solution containing 0.02% EDTA (Gibco) at 37° C. for 15 min. The cells were then triturated by gentle pipetting and washed 3 times with DRG growth medium (Neurobasal medium (Gibco) containing 2% B27 (Invitrogen), 100 ng/ml 2.5S NGF (Harland Bioproducts), […] 5-fluoro-2′deoxyuridine (Sigma), penicillin, and streptomycin). Cells were suspended in the DRG growth medium. DRG drop cultures were created by spotting 5000 cells/well into the center of each well of a 96-well tissue culture plate coated with poly-D-Lysine (0.1 mg/ml; Sigma) and laminin ([…]; Invitrogen). Cells were allowed to adhere to the plates in a humidified tissue culture incubator (5% CO2) for 15 min and then DRG growth medium was gently added ([…]).
Axonal degeneration was stimulated either by manual axonal transection using a scalpel blade, or chemotoxic stimuli. After an appropriate experimental time period, the DRG cultures were fixed in 1% PFA plus sucrose and kept in the fridge prior to imaging. Bright-field images of DRG axons and cell bodies were collected using the 20x water immersion lens of a Phenix automated confocal microscope (PerkinElmer) and quantitation of axonal performed using in-house developed scripts (Acapella, PerkinElmer).
`Ic1cccc2cnccc12` [Example 26] registered a concentration for half-maximal inhibition (IC50) of under 10 µM.
Same read-out and setting: then `Clc1cccc2cnccc12` [Example 42], with 10 to 30 µM; and `Brc1cccc2cnccc12` [Example 8], with under 10 µM.
